Results published in ChEMBL document CHEMBL1201862, “PubChem BioAssay data set” (2004).
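Interpolation was linear, between the two tested concentrations surrounding the appropriate level; five concentrations were tested over 48 hours in 96-well plates. The concentration for 50% growth inhibition is given as GI50.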 Activity calls are given as the source filed them. No stated cut-off is given here; in the data, active = GI50 up to about 1.1 µM and inactive = higher.

What was measured:
Assay in all cases: NCI tumour cell line growth inhibition, 48 h
[1] = tested on: SNB-19
[2] = tested on: PC-3
[3] = tested on: OVCAR-5
[4] = tested on: SK-MEL-28
[5] = tested on: SW-620
[6] = tested on: HCT-15
[7] = tested on: MCF7
[8] = tested on: KM12
[9] = tested on: UO-31
[10] = tested on: HT-29
[11] = tested on: K562
[12] = tested on: COLO 205
[13] = tested on: TK-10
[14] = tested on: NCI-H226
[15] = tested on: Hs-578T
[16] = tested on: RXF 393
[17] = tested on: MDA-MB-231
[18] = tested on: DU-145
[19] = tested on: A498
[20] = tested on: SR

Row | Structure (SMILES) | GI50 [1] | GI50 [2] | GI50 [3] | GI50 [4] | GI50 [5] | GI50 [6] | GI50 [7] | GI50 [8] | GI50 [9] | GI50 [10] | GI50 [11] | GI50 [12] | GI50 [13] | GI50 [14] | GI50 [15] | GI50 [16] | GI50 [17] | GI50 [18] | GI50 [19] | GI50 [20]
1 | [N-]=[N+]=Nc1ccc(NCCCCCC(=O)ON2C(=O)CCC2=O)c([N+](=O)[O-])c1 | > 100 µM (inactive) | 28.5 µM (inactive) | 44.2 µM (inactive) | 74.1 µM (inactive) | 60.1 µM (inactive) | > 100 µM | > 100 µM (inactive) | 46.2 µM (inactive) | 46.3 µM (inactive) | > 100 µM (inactive) | 22.4 µM (inactive) | > 100 µM (inactive) | 42.1 µM (inactive) | > 100 µM (inactive) | < 0.01 µM (active) | 40.8 µM (inactive) | 77.1 µM (inactive) | > 100 µM (inactive) | – | –
2 | CN(C)CCCOc1nc2c(c(=O)n(C)c(=O)n2C)n1C.SC1=NC=NC2=NC=NC12 | 88.5 µM (inactive) | 8.53 µM (inactive) | 23.4 µM (inactive) | 55.5 µM (inactive) | 4.45 µM (inactive) | 3.14 µM | 2.09 µM (inactive) | 3.85 µM (inactive) | 3.73 µM (inactive) | 5.2 µM (inactive) | 1.14 µM (inactive) | 4.3 µM (inactive) | 0.482 µM (active) | 2.15 µM (inactive) | 16 µM (inactive) | > 100 µM (inactive) | 1.69 µM (inactive) | 0.692 µM (active) | 32.8 µM (inactive) | –
3 | COC(=O)/C=C1\C(CO[Si](C)(C)C(C)(C)C)OC(n2cc(C)c(=O)n(C)c2=O)C1O[Si](C)(C)C(C)(C)C (stereo not given) | > 100 µM (inactive) | 48.5 µM (inactive) | > 100 µM (inactive) | > 100 µM (inactive) | > 100 µM (inactive) | > 100 µM | 27 µM (inactive) | > 100 µM (inactive) | > 100 µM (inactive) | > 100 µM (inactive) | > 100 µM (inactive) | > 100 µM (inactive) | > 100 µM (inactive) | > 100 µM (inactive) | > 100 µM (inactive) | – | > 100 µM (inactive) | > 100 µM (inactive) | > 100 µM (inactive) | –
4 | CC(NNC(=O)CC(=O)N(C(=O)c1ccccc1)c1ccc(Cl)cc1)c1cc2ccccc2oc1=O (stereo not given) | > 10 µM (inactive) | > 10 µM (inactive) | > 10 µM (inactive) | > 10 µM (inactive) | > 10 µM (inactive) | > 10 µM | > 10 µM (inactive) | > 10 µM (inactive) | 0.0995 µM (active) | > 10 µM (inactive) | > 10 µM (inactive) | > 10 µM (inactive) | > 10 µM (inactive) | > 10 µM (inactive) | > 10 µM (inactive) | > 10 µM (inactive) | > 10 µM (inactive) | > 10 µM (inactive) | > 10 µM (inactive) | –
5 | C/C(=N/S(=O)(=O)c1ccc(Cl)c(Cl)c1)OCC(C)(C)C | > 100 µM (inactive) | > 100 µM (inactive) | > 100 µM (inactive) | > 100 µM (inactive) | > 100 µM (inactive) | > 100 µM | > 100 µM (inactive) | > 100 µM (inactive) | > 100 µM (inactive) | > 100 µM (inactive) | > 100 µM (inactive) | > 100 µM (inactive) | > 100 µM (inactive) | > 100 µM (inactive) | > 100 µM (inactive) | > 100 µM (inactive) | > 100 µM (inactive) | > 100 µM (inactive) | > 100 µM (inactive) | –
6 | CC1(C)CC(=O)C2=C(C1)NC(SCC(=O)O)=C(C#N)C2c1ccc(Br)cc1 (stereo not given) | > 100 µM (inactive) | > 100 µM (inactive) | > 100 µM (inactive) | > 100 µM (inactive) | > 100 µM (inactive) | > 100 µM | > 100 µM (inactive) | > 100 µM (inactive) | 4.56 µM (inactive) | > 100 µM (inactive) | – | > 100 µM (inactive) | > 100 µM (inactive) | > 100 µM (inactive) | > 100 µM (inactive) | > 100 µM (inactive) | > 100 µM (inactive) | > 100 µM (inactive) | > 100 µM (inactive) | –
7 | O=C(N/N=C/c1ccc(Br)cc1)N/N=C/c1ccc(Br)cc1 | 4.42 µM (inactive) | 17.3 µM (inactive) | 35.3 µM (inactive) | 12 µM (inactive) | 7.13 µM (inactive) | 16.8 µM | 11.3 µM (inactive) | 17.1 µM (inactive) | 10.9 µM (inactive) | 11.4 µM (inactive) | 16.6 µM (inactive) | 9.44 µM (inactive) | 2.44 µM (inactive) | 7.43 µM (inactive) | 3.78 µM (inactive) | 13.3 µM (inactive) | 3.38 µM (inactive) | 9.12 µM (inactive) | – | 4.33 µM (inactive)
8 | CC(C)SC(NC(=O)C1C(C)(C)CCC1(C)C)C(=O)O (stereo not given) | > 100 µM (inactive) | > 100 µM (inactive) | > 100 µM (inactive) | > 100 µM (inactive) | > 100 µM (inactive) | > 100 µM | > 100 µM (inactive) | – | > 100 µM (inactive) | – | > 100 µM (inactive) | > 100 µM (inactive) | > 100 µM (inactive) | > 100 µM (inactive) | > 100 µM (inactive) | – | > 100 µM (inactive) | > 100 µM (inactive) | > 100 µM (inactive) | –
9 | COC(=O)c1sc(=S)sc1SCc1ccccc1CSc1sc(=S)sc1C(=O)OC | 77.1 µM (inactive) | > 100 µM (inactive) | > 100 µM (inactive) | > 100 µM (inactive) | > 100 µM (inactive) | > 100 µM | > 100 µM (inactive) | > 100 µM (inactive) | > 100 µM (inactive) | > 100 µM (inactive) | 38.5 µM (inactive) | > 100 µM (inactive) | > 100 µM (inactive) | > 100 µM (inactive) | > 100 µM (inactive) | 44.3 µM (inactive) | > 100 µM (inactive) | > 100 µM (inactive) | > 100 µM (inactive) | –
10 | Clc1ccc2nc3c(c(-c4ccccc4)nn3-c3ccccc3)c(-c3ccccc3)c2c1 | > 100 µM (inactive) | > 100 µM (inactive) | > 100 µM (inactive) | > 100 µM (inactive) | > 100 µM (inactive) | > 100 µM | > 100 µM (inactive) | > 100 µM (inactive) | > 100 µM (inactive) | > 100 µM (inactive) | > 100 µM (inactive) | > 100 µM (inactive) | > 100 µM (inactive) | > 100 µM (inactive) | > 100 µM (inactive) | – | > 100 µM (inactive) | > 100 µM (inactive) | – | > 100 µM (inactive)
11 | CCC(=O)OCN1C(=O)C=CC1=O | 18.5 µM (inactive) | 17.1 µM (inactive) | 18.2 µM (inactive) | 18.6 µM (inactive) | 2.01 µM (inactive) | 22.9 µM | 20.1 µM (inactive) | 16.7 µM (inactive) | 7.91 µM (inactive) | 17.9 µM (inactive) | 3.26 µM (inactive) | 4.28 µM (inactive) | 6.21 µM (inactive) | 41.9 µM (inactive) | 10.1 µM (inactive) | 16.2 µM (inactive) | 18.7 µM (inactive) | 16.6 µM (inactive) | > 44.5 µM (inactive) | –
12 | O=C1CCC2c3ccccc3NCN12 (stereo not given) | > 100 µM (inactive) | > 100 µM (inactive) | > 100 µM (inactive) | > 100 µM (inactive) | > 100 µM (inactive) | > 100 µM | > 100 µM (inactive) | > 100 µM (inactive) | > 100 µM (inactive) | > 100 µM (inactive) | > 100 µM (inactive) | > 100 µM (inactive) | > 100 µM (inactive) | > 100 µM (inactive) | > 100 µM (inactive) | > 100 µM (inactive) | > 100 µM (inactive) | > 100 µM (inactive) | > 100 µM (inactive) | –
13 | CN(C)c1ccc(/C=C(\NC(=O)c2ccccc2)C(=O)Nc2cccc(C(=O)NCCCO)c2)cc1 | > 100 µM (inactive) | > 100 µM (inactive) | > 100 µM (inactive) | > 100 µM (inactive) | > 100 µM (inactive) | > 100 µM | > 100 µM (inactive) | > 100 µM (inactive) | > 100 µM (inactive) | > 100 µM (inactive) | > 100 µM (inactive) | > 100 µM (inactive) | > 100 µM (inactive) | > 100 µM (inactive) | > 100 µM (inactive) | > 100 µM (inactive) | > 100 µM (inactive) | > 100 µM (inactive) | > 100 µM (inactive) | –
14 | C/C=C/C(C#N)(/C=C/c1ccccc1)OP1(=O)OC(c2ccccc2)C(C)N1C (stereo not given) | 20.7 µM (inactive) | 17 µM (inactive) | 20.1 µM (inactive) | 17.1 µM (inactive) | 16.1 µM (inactive) | – | 22.8 µM (inactive) | 19 µM (inactive) | 17.8 µM (inactive) | 19.7 µM (inactive) | 16.4 µM (inactive) | 17.2 µM (inactive) | 19.9 µM (inactive) | – | 22.4 µM (inactive) | 20.7 µM (inactive) | 17.5 µM (inactive) | 30 µM (inactive) | 20.1 µM (inactive) | –
15 | CC[C@]1(Cc2ccc(OC)c(OC)c2)C=[N+]([O-])O[C@H](OC2CCCC2(c2ccccc2)c2ccccc2)[C@@H]1OC(C)=O (stereo not given in full) | 5.89 µM (inactive) | 4.66 µM (inactive) | 16.7 µM (inactive) | 1.81 µM (inactive) | 3.44 µM (inactive) | 3.37 µM | 2.43 µM (inactive) | 2.84 µM (inactive) | 3.12 µM (inactive) | 1.98 µM (inactive) | 2.98 µM (inactive) | 3.35 µM (inactive) | 3.02 µM (inactive) | – | 13.1 µM (inactive) | 1.52 µM (inactive) | 11 µM (inactive) | 3.03 µM (inactive) | – | 2.79 µM (inactive)
